Molecules are shown by their SMILES. A value given as a limit tells only on which side of the number the result lay.

One test has as its system LNCaP. Nature of the test: Antiproliferative activity against human LNCAP cells. It is filed as functional, cell-based.
Test [1] can be described thus: Selectivity ratio of IC50 for PI3Kalpha to IC50 for mTOR.
The target in test [2] is Phosphatidylinositol 4,5-bisphosphate 3-kinase catalytic subunit alpha isoform (Homo sapiens, UniProt P42336). Nature of the test: Inhibition of PI3Kalpha.
Test [3] deals with Serine/threonine-protein kinase mTOR (Homo sapiens, UniProt P42345). Nature of the test: Inhibition of mTOR.

Phosphatidylinositol 4,5-bisphosphate 3-kinase catalytic subunit alpha isoform, sequence (P42336 whole entry, canonical isoform): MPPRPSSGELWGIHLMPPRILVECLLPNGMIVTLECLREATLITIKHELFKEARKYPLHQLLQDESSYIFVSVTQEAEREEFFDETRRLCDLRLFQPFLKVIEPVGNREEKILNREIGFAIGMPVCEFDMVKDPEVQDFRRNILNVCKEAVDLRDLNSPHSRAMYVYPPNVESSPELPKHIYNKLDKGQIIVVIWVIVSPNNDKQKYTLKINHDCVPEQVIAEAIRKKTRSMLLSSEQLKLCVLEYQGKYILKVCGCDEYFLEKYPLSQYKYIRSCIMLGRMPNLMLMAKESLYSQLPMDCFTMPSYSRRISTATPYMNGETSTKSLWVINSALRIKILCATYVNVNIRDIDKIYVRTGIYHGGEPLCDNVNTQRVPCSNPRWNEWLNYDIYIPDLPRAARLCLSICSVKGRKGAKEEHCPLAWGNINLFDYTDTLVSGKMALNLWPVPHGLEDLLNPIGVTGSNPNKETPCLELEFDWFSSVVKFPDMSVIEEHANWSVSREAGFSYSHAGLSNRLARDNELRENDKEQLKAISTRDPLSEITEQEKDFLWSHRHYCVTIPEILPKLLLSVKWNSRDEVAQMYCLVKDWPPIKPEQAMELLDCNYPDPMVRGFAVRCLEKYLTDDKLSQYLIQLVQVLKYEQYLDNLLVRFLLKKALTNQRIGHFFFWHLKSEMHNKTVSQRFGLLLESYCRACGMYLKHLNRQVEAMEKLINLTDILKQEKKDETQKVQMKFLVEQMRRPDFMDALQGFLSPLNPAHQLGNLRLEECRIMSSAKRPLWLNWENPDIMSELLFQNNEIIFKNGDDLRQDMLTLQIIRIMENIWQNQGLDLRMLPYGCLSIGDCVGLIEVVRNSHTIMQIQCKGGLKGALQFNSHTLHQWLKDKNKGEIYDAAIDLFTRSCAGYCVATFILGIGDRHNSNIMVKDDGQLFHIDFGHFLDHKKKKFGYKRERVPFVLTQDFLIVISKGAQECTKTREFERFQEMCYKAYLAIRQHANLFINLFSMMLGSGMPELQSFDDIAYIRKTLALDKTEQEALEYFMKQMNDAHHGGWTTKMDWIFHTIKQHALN

Consider `CNC(=O)Nc1cccc2c1C(=O)/C(=C/c1cn(C)c3nccc(-c4ccccc4)c13)O2`, for which the IC50 in the test with LNCaP is more than 60 µM.
Compound `Cn1cc(/C=C2\Oc3ccc(NC(=O)Nc4cccnc4)cc3C2=O)c2c(N3CCC(C(=O)N4C5CCC4COC5)CC3)ccnc21` returned an IC50 with LNCaP of 0.2 µM.
On to `Cn1cc(/C=C2\Oc3ccc(NC(=O)Nc4ccccc4)cc3C2=O)c2c(N3CC4CCC(C3)O4)ccnc21`, for which the Ratio IC50 in test [1] was 3.4. Further, 0.28 µM corresponded to half-maximal inhibition in the test on LNCaP (IC50).
For the compound `Cn1cc(/C=C2\Oc3cccc(O)c3C2=O)c2c(-c3ccccc3)ccnc21`, the Ratio IC50 in test [1] amounted to 25.4. For the same compound, in the test on LNCaP, inhibition was half-maximal at 0.2 µM (IC50).
For `Cn1cc(/C=C2\Oc3ccc(NC(=O)Nc4cccnc4)cc3C2=O)c2c(N3CCC(C(=O)N4CCCCC4)CC3)ccnc21`, the Ratio IC50 in test [1] came out at 12.6. This compound also came in with an IC50 in the test on LNCaP of 0.018 µM.
In turn, `CCN(CC)C(=O)C1CCN(c2ccnc3c2c(/C=C2\Oc4ccc(NC(=O)Nc5cccnc5)cc4C2=O)cn3C)CC1` came in with an IC50 in the test with LNCaP of 0.05 µM. That is a double-digit nanomolar value.
On to `CN(Cc1ccccn1)C(=O)C1CCN(c2ccnc3c2c(/C=C2\Oc4ccc(NC(=O)Nc5cccnc5)cc4C2=O)cn3C)CC1`, for which, in the test on LNCaP, the 50% inhibitory concentration (IC50) stood at 0.04 µM.
On to `Cn1cc(/C=C2\Oc3ccc(NC(=O)Nc4cccnc4)cc3C2=O)c2c(N3CC4CCC3CO4)ccnc21` (configuration not stated), for which the IC50 is 0.0018 µM with LNCaP and 0.249 µM in test [2].
Regarding `CN(C)C1CCN(C(=O)C2CCN(c3ccnc4c3c(/C=C3\Oc5ccc(NC(=O)Nc6cccnc6)cc5C3=O)cn4C)CC2)C1` (configuration not stated), the IC50 in the test with LNCaP was 2.3 µM; in test [2], more than 10 µM; in test [3] it was 0.011 µM.
With `Cn1cc(/C=C2\Oc3ccc(NC(=O)Nc4cccnc4)cc3C2=O)c2c(N3CCC(C(=O)N4CC5CCC(C4)O5)CC3)ccnc21`, the IC50 in the test on LNCaP amounted to 0.09 µM. This counts as double-digit nanomolar.
In the test on LNCaP, `CNC(=O)Nc1ccc2c(c1)C(=O)/C(=C/c1cn(C)c3nccc(N4CC5CCC(C4)O5)c13)O2` gave a half-maximal inhibitory concentration (IC50) of 0.14 µM.
Still for that read-out and setting: the figure for `Cn1cc(/C=C2\Oc3ccc(NC(=O)Nc4cccnc4)cc3C2=O)c2c(N3CC4CCC(C3)O4)ccnc21` is 0.015 µM.
In the test on LNCaP, `CN(Cc1cccnc1)C(=O)C1CCN(c2ccnc3c2c(/C=C2\Oc4ccc(NC(=O)Nc5cccnc5)cc4C2=O)cn3C)CC1` returned an IC50 of 3.2 µM.
With `Cn1cc(/C=C2\Oc3ccc(NC(=O)Nc4cccnc4)cc3C2=O)c2c(N3CCC(C(=O)N4CCCC4)CC3)ccnc21`, in test [1], the Ratio IC50 was found to be 111. In the test with LNCaP, this compound returned an IC50 of 0.012 µM.
Regarding `CN(Cc1ccncc1)C(=O)C1CCN(c2ccnc3c2c(/C=C2\Oc4ccc(NC(=O)Nc5cccnc5)cc4C2=O)cn3C)CC1`, the Ratio IC50 in test [1] was 132. In the test on LNCaP, this compound yielded an IC50 of 0.023 µM.
As to `CN(C)CCNC(=O)Nc1ccc2c(c1)C(=O)/C(=C/c1cn(C)c3nccc(N4CC5CCC(C4)O5)c13)O2`, it took 0.06 µM to reach half-maximal inhibition in the test on LNCaP (IC50).
Turning to `CN(C)C(=O)C1CCN(c2ccnc3c2c(/C=C2\Oc4ccc(NC(=O)Nc5cccnc5)cc4C2=O)cn3C)CC1`, the IC50 in the test with LNCaP was determined as 0.08 µM. This IC50 and that of the compound before are within 1.5-fold of each other.
In turn, `Cn1cc(/C=C2\Oc3ccc(NC(=O)Nc4cccnc4)cc3C2=O)c2c(N3CCOCC3)ccnc21` had an IC50 in the test on LNCaP of 0.05 µM.
With `Cn1cc(/C=C2\Oc3ccc(NC(=O)Nc4cccnc4)cc3C2=O)c2c(N3CCC(C(=O)NCc4cccnc4)CC3)ccnc21`, the Ratio IC50 in test [1] was 450. Further, the concentration for half-maximal inhibition (IC50) in the test with LNCaP amounted to 60 µM; in test [2], 4.04 µM; in test [3], 0.009 µM.
As to `Cn1cc(/C=C2\Oc3ccc(NC(=O)Nc4cccnc4)cc3C2=O)c2c(N3C4CCC3COC4)ccnc21`, the Ratio IC50 in test [1] stood at 3. Further, the IC50 with LNCaP stood at 0.006 µM; in test [2], 0.128 µM.
In the test with LNCaP, `CN(C(=O)C1CCN(c2ccnc3c2c(/C=C2\Oc4ccc(NC(=O)Nc5cccnc5)cc4C2=O)cn3C)CC1)c1cccnc1` gave an IC50 of 0.3 µM.
In the test with LNCaP, `CCNC(=O)Nc1ccc2c(c1)C(=O)/C(=C/c1cn(C)c3nccc(N4CC5CCC(C4)O5)c13)O2` displayed an IC50 of 2.8 µM. Against the preceding compound, the IC50 is about 9.3-fold higher.
With `Cn1cc(/C=C2\Oc3ccc(NC(=O)Nc4cccnc4)cc3C2=O)c2c(N3CCC(C(=O)N4CCOCC4)CC3)ccnc21`, the Ratio IC50 in test [1] amounted to 148. The figures for the IC50 (in the test on LNCaP; in test [2]) were 3.2 µM and 2.66 µM, respectively.
On to `Cn1cc(/C=C2\Oc3ccc(NC(=O)Nc4ccc(N5CCOCC5)nc4)cc3C2=O)c2c(N3CC4CCC(C3)O4)ccnc21`, for which the Ratio IC50 in test [1] worked out at 76.6. For the same compound, the IC50 in the test on LNCaP is more than 60 µM.
On to `CNC(=O)Nc1ccc2c(c1)C(=O)/C(=C/c1cn(C)c3nccc(-c4ccccc4)c13)O2`, for which the IC50 with LNCaP was 60 µM.
`CN1CCN(C(=O)C2CCN(c3ccnc4c3c(/C=C3\Oc5ccc(NC(=O)Nc6cccnc6)cc5C3=O)cn4C)CC2)CC1`: the Ratio IC50 in test [1] came to 65.7. For the same compound, the IC50 with LNCaP turned out to be 0.33 µM; in test [3] it was 0.07 µM.
`CN(Cc1ccccc1)C(=O)C1CCN(c2ccnc3c2c(/C=C2\Oc4ccc(NC(=O)Nc5cccnc5)cc4C2=O)cn3C)CC1`: the IC50 in the test with LNCaP is 0.02 µM; in test [2], more than 10 µM; in test [3], 0.102 µM.

Usually IC50 stands for the concentration needed to halve the response being measured. A high value points to weaker potency.

The values are drawn from ChEMBL document CHEMBL1156282, “4-Substituted-7-azaindoles bearing a ureidobenzofuranone moiety as potent and selective, ATP-competitive inhibitors of the mammalian target of rapamycin (mTOR)” (Bioorg Med Chem Lett, 2010).
